Paper PMC9088311, “Cyclic Thiosulfonates for Thiol-Mediated Uptake: Cascade Exchangers, Transporters, Inhibitors” (JACS Au, 2022)
“And” between values parts separate entries of the source, which are not always exact repeats. Equal values may be shown once. Read-outs that look alike come from different tables or passages of the source. Marks after values point to notes of the source that are not given here.

Test system: lentivirus with D614G SC2 spike protein, A549 cells overexpressing ACE2 and TMPRSS2
Type: cell-based, SARS-CoV-2
Parameters: key to qualitative inhibition of SC2 uptake (heatmap): –: −: inactive; ++: qualitative inhibition of SC2 uptake
Conditions: for IC50: read-out: IC50 of SC2 lentivector entry

CC(C)(C)[Si](C)(C)O[C@H]1CS(=O)(=O)SC[C@H]1OC(=O)NCCNC(=O)CC(O)(CC(=O)NCCNC(=O)O[C@H]1CSS(=O)(=O)C[C@H]1O[Si](C)(C)C(C)(C)C)C(=O)NCCNC(=O)O[C@@H]1CSS(=O)(=O)C[C@@H]1O[Si](C)(C)C(C)(C)C (stereo partly drawn) [Compound 42]
VE, vector entry: 97 ± 15%

CC#CI1OC(=O)c2ccccc21 [Compound 49, reference compound]
VE, vector entry: >100%
inhibition of SC2 lentivector entry (in words): did not inhibit
qualitative inhibition of SC2 uptake (heatmap): –

CC(C)(C)[Si](C)(C)O[C@@H]1CS(=O)(=O)SC[C@@H]1O [Compound 6]
VE, vector entry: 105 ± 3%

CC1(C)O[C@H]2CSS(=O)(=O)C[C@H]2O1 [Compound 13]
VE, vector entry: 80 ± 20%

O=c1c2ccccc2[se]n1-c1ccccc1 [Compound 46, Ebselen, reference compound]
VE, vector entry: 65 ± 13%
inhibition of SC2 lentivector entry (in words) (50 μM): more toxic than active

O=C(NCCCCCCNC(=O)O[C@H]1CSS(=O)(=O)C[C@H]1O)O[C@H]1CSS(=O)(=O)C[C@H]1O [Compound 41]
VE, vector entry: >100 ^f %
inhibition of SC2 lentivector entry (in words): inactive

NCCNC(=O)O[C@H]1CSS(=O)(=O)C[C@H]1O [Compound 39]
VE, vector entry: 52 ± 31%

O=C(O)c1cc(SSc2ccc([N+](=O)[O-])c(C(=O)O)c2)ccc1[N+](=O)[O-] [Compound 16, 5,5’-Dithiobis(2-nitrobenzoic acid), reference compound]
VE, vector entry: >100%
inhibition of SC2 lentivector entry (in words) (5 μM): weak activation rather than inhibition

O=C1O[C@H]2CSS(=O)(=O)C[C@H]2O1 [Compound 11]
VE, vector entry: 4 ± 1%

O=S(O)CC(O)C(O)CSSCC(O)C(O)CS(=O)O (stereo not drawn) [Compound 37]
VE, vector entry: 42 ± 32%

CCN1C(=O)C2SSSSC1C(=O)N2CC(=O)O (stereo not drawn) [Compound 47, reference compound]
VE, vector entry: 83 ± 12%
qualitative inhibition of SC2 uptake (heatmap): –

C#CCNC(=O)CC[C@H](NC(=O)COCCNC(=O)O[C@H]1CSS(=O)(=O)C[C@H]1O[Si](C)(C)C(C)(C)C)C(=O)NCCOCCNC(=O)O[C@H]1CSS(=O)(=O)C[C@H]1O[Si](C)(C)C(C)(C)C [Compound 44]
VE, vector entry: 103 ± 12%

O=S1(=O)C[C@H](O)[C@H](O)CS1 (stereo in doubt) [Compound 3, (4S,5R)-4,5-dihydroxy-1,2-dithiane-1,1-dioxide]
inhibition of SC2 lentivector entry (in words): inactive
qualitative inhibition of SC2 uptake (heatmap): ++

CCCNC(=O)O[C@H]1CSS(=O)(=O)C[C@H]1O[Si](C)(C)C(C)(C)C [Compound 43]
VE, vector entry: 99 ± 12%
inhibition of SC2 lentivector entry (in words): inactivity

CC(C)(C)[Si](C)(C)OC1CS(=O)(=O)SCC1OC(=O)NCCCCCCNC(=O)OC1CSS(=O)(=O)CC1O[Si](C)(C)C(C)(C)C (stereo not drawn) [Compound 4]
VE, vector entry: 46 ± 8%
IC50: ~10 µM and ~5 µM

CC(C)(C)[Si](C)(C)O[C@@H]1CS(=O)(=O)SC[C@@H]1OC(=O)NCC[N+](C)(C)C [Compound 38]
VE, vector entry: 43 ± 26%

CC(=O)/C=C1/C(=O)N(C)c2ccccc21 [Compound 48, super-cinnamaldehyde, reference compound]
VE, vector entry: >100%
inhibition of SC2 lentivector entry (in words) (5 μM): weak activation rather than inhibition

CC(C)(C)OC(=O)NCCNC(=O)O[C@H]1CSS(=O)(=O)C[C@H]1O[Si](C)(C)C(C)(C)C (racemic) [Compound 50]
VE, vector entry (inhibitor 5 μM (1 h), lentivirus 6 h, 3 days expression, n = 3, ±SD): 100 ± 40%

O=C(NCCCCCCNC(=O)O[C@H]1CSS(=O)(=O)C[C@H]1OCc1ccccc1)O[C@H]1CSS(=O)(=O)C[C@H]1OCc1ccccc1 [Compound 33]
VE, vector entry: 56 ± 12%
IC50: ~5 µM

CC(=O)O[C@H]1CSS(=O)(=O)C[C@H]1O [Compound 36]
VE, vector entry: 34 ± 3%

O=C(O)Cn1[se]c2ccccc2c1=O [Compound 45, reference compound]
VE, vector entry: 31 ± 3%
qualitative inhibition of SC2 uptake (heatmap): ++
inhibition of SC2 lentivector entry (in words) (50 μM): more active and nontoxic

O=C(N[C@H]1CCS(=O)(=O)SC1)N[C@H]1CCS(=O)(=O)SC1 [Compound 35]
VE, vector entry: 25 ± 3%
inhibition of SC2 lentivector entry (in words): inactivity
inhibition of SC2 lentivector entry (in words) (50 μM): high activity

O=S(O)CC(O)C(O)CSSCCSSCC(O)C(O)CS(=O)O (stereo not drawn) [Compound 40]
VE, vector entry: 64 ± 25%

CC(C)(C)OC(=O)NCCNC(=O)O[C@H]1CSS(=O)(=O)C[C@H]1O [Compound 34]
VE, vector entry: 8 ± 6%
